Source: patent US8334382B2, “Substituted biaryl piperazinyl-pyridine analogues” (Neurogen Corporation, priority 2004, dated 2012)

Target: T1, human capsaicin receptor (Homo sapiens, UniProt Q8NER1)
T1 construct: expressed in transfected cells; host or cells: HEK293, stably transfected with pBK-CMV construct
Assay: Calcium mobilization assay, determination of antagonist activity
Type: cell-based
Settings: capsaicin at EC50; cells expressing human capsaicin receptor; Example 6
Summary of the method: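 IC50 is the antagonist level giving a 50% drop in the capsaicin (EC50) calcium signal, read by FLIPR in Fluo-3 AM-loaded stable HEK293 lines bearing full-length human receptor. Compounds at 1-5 µM final were preincubated 0.5-6 h, room temperature, dark, in KRH pH 7.4.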

T1 sequence (Q8NER1 whole entry): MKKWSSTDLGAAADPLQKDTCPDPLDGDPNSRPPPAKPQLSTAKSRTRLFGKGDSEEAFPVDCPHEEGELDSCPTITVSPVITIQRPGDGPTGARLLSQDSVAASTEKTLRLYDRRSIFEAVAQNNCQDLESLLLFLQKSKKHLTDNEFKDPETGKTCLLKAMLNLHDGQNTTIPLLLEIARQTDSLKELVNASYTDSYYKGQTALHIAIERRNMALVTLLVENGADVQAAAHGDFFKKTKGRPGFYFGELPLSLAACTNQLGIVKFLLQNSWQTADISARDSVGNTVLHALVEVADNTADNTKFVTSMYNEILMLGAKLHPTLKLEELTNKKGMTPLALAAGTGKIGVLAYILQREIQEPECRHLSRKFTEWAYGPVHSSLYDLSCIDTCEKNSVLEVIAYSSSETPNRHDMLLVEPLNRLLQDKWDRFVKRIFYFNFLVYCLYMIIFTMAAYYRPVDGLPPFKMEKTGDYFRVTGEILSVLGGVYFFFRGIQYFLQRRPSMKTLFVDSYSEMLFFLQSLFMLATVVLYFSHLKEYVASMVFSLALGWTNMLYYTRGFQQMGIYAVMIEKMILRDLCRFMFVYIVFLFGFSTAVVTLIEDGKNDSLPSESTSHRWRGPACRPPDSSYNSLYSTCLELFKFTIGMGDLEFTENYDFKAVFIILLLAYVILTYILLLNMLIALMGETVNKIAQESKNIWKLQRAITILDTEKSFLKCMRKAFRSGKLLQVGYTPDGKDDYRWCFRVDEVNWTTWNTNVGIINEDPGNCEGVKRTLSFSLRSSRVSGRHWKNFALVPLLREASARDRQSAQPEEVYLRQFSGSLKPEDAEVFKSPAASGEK

SMILES	IC50 [nM]
Cc1cc(C(=O)N(C)C2CCCCC2)cnc1N1CCN(c2cc(-c3ccc(F)cc3)nc(N3CCCC3C)n2)CC1 (stereo not shown) [Example 129, N-cyclohexyl-6-{4-[6-(4-fluorophenyl)-2-(2-methylpyrrolidin-1-yl)pyrimidin-4-yl]piperazin-1-yl}-N,5-dimethylnicotinamide]	≤ 1000
Cc1cc(C(=O)NC2CC2)cnc1N1CCN(c2cc(-c3ccc(F)cc3)nc(N3CCCC3C)n2)CC1 (stereo not shown) [Example 106, N-Cyclopropyl-6-{4-[6-(4-fluoro-phenyl)-2-(2-methyl-pyrrolidin-1-yl)-pyrimidin-4-yl]-piperazin-1-yl}-5-methyl-nicotinamide]	≤ 1000
Cc1cc(C(=O)N2CCSCC2)cnc1N1CCN(c2cc(-c3ccc(F)cc3)nc(N3CCCC3C)n2)CC1 (stereo not shown) [Example 127, 4-[(6-{4-[6-(4-fluorophenyl)-2-(2-methylpyrrolidin-1-yl)pyrimidin-4-yl]piperazin-1-yl}-5-methylpyridin-3-yl)carbonyl] thiomorpholine]	≤ 1000
CCOC(=O)c1cnc(N2CCN(c3cc(-c4ccc(F)c(Cl)c4)ncn3)[C@H](C)C2)c(Cl)c1 [Example 79, 5-Chloro-6-{4-[6-(3-chloro-4-fluoro-phenyl)-pyrimidin-4-yl]-3-(R)-methyl-piperazin-1-yl}-nicotinic acid ethyl ester]	≤ 1000
Cc1cc(C(=O)O)cnc1N1CCN(c2cc(-c3ccccc3)nc(N3CCCC3C)n2)CC1 (stereo not shown) [Example 75, 5-Methyl-6-{4-[2-(2-methyl-pyrrolidin-1-yl)-6-phenyl-pyrimidin-4-yl]-piperazin-1-yl}-nicotinic acid]	≤ 1000
Cc1cc(CO)cnc1N1CCN(c2cc(-c3ccc(F)cc3)nc(N3CCCC3C)n2)CC1 (stereo not shown) [Example 38, (6-{4-[6-(4-Fluoro-phenyl)-2-(2-methyl-pyrrolidin-1-yl)-pyrimidin-4-yl]-piperazin-1-yl}-5-methyl-pyridin-3-yl)-methanol]	≤ 1000
Cc1cc(C(=O)NCc2ccccc2)cnc1N1CCN(c2cc(-c3ccc(F)cc3)nc(N3CCCC3C)n2)CC1 (stereo not shown) [Example 113, N-benzyl-6-{4-[6-(4-fluorophenyl)-2-(2-methylpyrrolidin-1-yl)pyrimidin-4-yl]piperazin-1-yl}-5-methylnicotinamide]	≤ 1000
C[C@@H]1CN(c2ncc(C(N)=O)cc2Cl)CCN1c1cc(-c2ccc(F)cc2)nc(N2CCOC[C@H]2C)n1 [Example 143, 5-Chloro-6-{4-[6-(4-fluoro-phenyl)-2-(3-(R)-methyl-morpholin-4-yl)-pyrimidin-4-yl]-3-(R)-methyl-piperazin-1-yl}-nicotinamide]	≤ 1000
COC1CCN(C(=O)c2cnc(N3CCN(c4cc(-c5ccc(F)cc5)nc(N5CCCC5C)n4)CC3)c(C)c2)CC1 (stereo not shown) [Example 141, 4-(4-fluorophenyl)-6-(4-{5-[(4-methoxypiperidin-1-yl)carbonyl]-3-methylpyridin-2-yl}piperazin-1-yl)-2-(2-methylpyrrolidin-1-yl)pyrimidine]	≤ 1000
CC1CCCN1c1nc(-c2ccc(F)cc2)cc(N2CCN(c3ncc(CC(=O)O)cc3Cl)CC2)n1 (stereo not shown) [Example 39, (5-Chloro-6-{4-[6-(4-fluoro-phenyl)-2-(2-methyl-pyrrolidin-1-yl)-pyrimidin-4-yl]-piperazin-1-yl}-pyridin-3-yl)-acetic acid]	≤ 1000
Cc1cc(C(=O)N2CCC(c3ccccc3)CC2)cnc1N1CCN(c2cc(-c3ccc(F)cc3)nc(N3CCCC3C)n2)CC1 (stereo not shown) [Example 130, 4-(4-fluorophenyl)-6-(4-{3-methyl-5-[(4-phenylpiperidin-1-yl)carbonyl]pyridin-2-yl}piperazin-1-yl)-2-(2-methylpyrrolidin-1-yl)pyrimidine]	≤ 1000

Second part, the compound after the results:

IC50 [nM]	SMILES
≤ 1000	C[C@@H]1CN(c2ncc(CCCO)cc2Cl)CCN1c1cc(-c2ccc(F)c(Cl)c2)nc(N2CCC[C@H]2C)n1 (relative stereo) [Example 193, rel-3-{5-chloro-6-[(3R)-4-{6-(3-chloro-4-fluorophenyl)-2-[(2R)-2-methylpyrrolidin-1-yl]pyrimidin-4-yl}-3-methylpiperazin-1-yl]pyridin-3-yl}propan-1-ol]
≤ 1000	Cc1cc(C(=O)O)cnc1N1CCN(c2cc(-c3ccnc(C(C)C)c3)nc(N3CCCC3C)n2)[C@H](C)C1 (stereo partly drawn) [Example 80, 6-{4-[6-(2-Isopropyl-pyridin-4-yl)-2-(2-methyl-pyrrolidin-1-yl)-pyrimidin-4-yl]-3-(R)-methyl-piperazin-1-yl}-5-methyl-nicotinic acid]
≤ 1000	CCOC(=O)c1cnc(N2CCN(c3cc(-c4ccnc(C(C)C)c4)nc(N4CCCC4C)n3)[C@H](C)C2)c(C)c1 (stereo partly drawn) [Example 61, 6-{4-[6-(2-Isopropyl-pyridin-4-yl)-2-(2-methyl-pyrrolidin-1-yl)-pyrimidin-4-yl]-3-(R)-methyl-piperazin-1-yl}-5-methyl-nicotinic acid ethyl ester]
≤ 1000	CC1CCCN1c1nc(-c2cncc(Cl)c2)cc(N2CCN(c3ncc(CO)cc3Cl)C[C@H]2C)n1 (stereo partly drawn) [Example 49, (5-Chloro-6-{4-[6-(5-chloro-pyridin-3-yl)-2-(2-methyl-pyrrolidin-1-yl)-pyrimidin-4-yl]-3-(R)-methyl-piperazin-1-yl}-pyridin-3-yl)-methanol]
≤ 1000	Cc1cc(-c2ncc[nH]2)cnc1N1CCN(c2cc(-c3ccc(F)cc3)nc(N3CCC[C@H]3C)n2)[C@H](C)C1 [Example 169, 4-(4-Fluoro-phenyl)-6-{4-[5-(1H-imidazol-2-yl)-3-methyl-pyridin-2-yl]-2-(R)-methyl-piperazin-1-yl}-2-(2-(R)-methyl-pyrrolidin-1-yl)-pyrimidine]
≤ 1000	CC1CCCN1c1nc(-c2ccc(F)cc2)cc(N2CCN(c3ncc(CO)cc3Cl)C[C@H]2C)n1 (stereo partly drawn) [Example 31, (5-Chloro-6-{4-[6-(4-fluoro-phenyl)-2-(2-methyl-pyrrolidin-1-yl)-pyrimidin-4-yl]-3-(R)-methyl-piperazin-1-yl}-pyridin-3-yl)-methanol]
≤ 1000	COC(=O)c1cnc(N2CCN(c3cc(-c4ccc(F)c(Cl)c4)nc(N4CCCC4C)n3)[C@H](C)C2)c(Cl)c1 (stereo partly drawn) [Example 8, 5-Chloro-6-{4-[6-(3-chloro-4-fluoro-phenyl)-2-(2-methyl-pyrrolidin-1-yl)-pyrimidin-4-yl]-3-(R)-methyl-piperazin-1-yl}-nicotinic acid methyl ester]
≤ 1000	CCOC(=O)c1cnc(N2CCN(c3cc(-c4ccc(F)cc4)nc(N4CCCC4C)n3)[C@H](C)C2)c(Cl)c1 (stereo partly drawn) [Example 27, 5-Chloro-6-{4-[6-(4-fluoro-phenyl)-2-(2-methyl-pyrrolidin-1-yl)-pyrimidin-4-yl]-3-(R)-methyl-piperazin-1-yl}-nicotinic acid ethyl ester]
≤ 1000	Cc1cc(C(=O)O)cnc1N1CCN(c2cc(-c3ccncc3)nc(N3CCCC3C)n2)CC1 (stereo not shown) [Example 77, 5-Methyl-6-{4-[2-(2-methyl-pyrrolidin-1-yl)-6-pyridin-4-yl-pyrimidin-4-yl]-piperazin-1-yl}-nicotinic acid]
≤ 1000	C[C@@H]1CN(c2ncc(OCCO)cc2Cl)CCN1c1cc(-c2ccc(F)c(Cl)c2)nc(N2CCC[C@H]2C)n1 [Example 183, 2-{[5-chloro-6-((3R)-4-{6-(3-chloro-4-fluorophenyl)-2-[(2R)-2-methylpyrrolidin-1-yl]pyrimidin-4-yl}-3-methylpiperazin-1-yl)pyridin-3-yl]oxy}ethanol]
≤ 1000	Cc1cc(C(=O)O)cnc1N1CCN(c2cc(-c3ccccc3)nc(N3CCCC3C)n2)[C@H](C)C1 (stereo partly drawn) [Example 68, 5-Methyl-6-{3-(R)-methyl-4-[2-(2-methyl-pyrrolidin-1-yl)-6-phenyl-pyrimidin-4-yl]-piperazin-1-yl}-nicotinic acid]
≤ 1000	Cc1cc(C(=O)O)cnc1N1CCN(c2cc(-c3ccncc3)nc(N3CCCC3C)n2)[C@H](C)C1 (stereo partly drawn) [Example 70, 5-Methyl-6-{3-(R)-methyl-4-[2-(2-methyl-pyrrolidin-1-yl)-6-pyridin-4-yl-pyrimidin-4-yl]-piperazin-1-yl}-nicotinic acid]
≤ 1000	Cc1cc(C(=O)O)cnc1N1CCN(c2cc(-c3ccc(F)cc3)nc(N3CCC[C@H]3C)n2)[C@@H](C)C1 [Example 170, 6-{4-[6-(4-Fluoro-phenyl)-2-(2-(R)-methyl-pyrrolidin-1-yl)-pyrimidin-4-yl]-3-(S)-methyl-piperazin-1-yl}-5-methyl-nicotinic acid]
≤ 1000	Cc1cc(OCCO)cnc1N1CCN(c2cc(-c3ccc(F)cc3)nc(N3CCC[C@H]3CO)n2)[C@H](C)C1 [Example 184, 2-{[6-((3R)-4-{6-(4-fluorophenyl)-2-[(2S)-2-(hydroxymethyl)pyrrolidin-1-yl]pyrimidin-4-yl}-3-methylpiperazin-1-yl)-5-methylpyridin-3-yl]oxy}ethanol]
≤ 1000	Cc1cc(C(=O)O)cnc1N1CCN(c2cc(-c3ccc(F)cc3)nc(N3CCCC3C)n2)[C@H](C)C1 (stereo partly drawn) [Example 34, 6-{4-[6-(4-Fluoro-phenyl)-2-(2-methyl-pyrrolidin-1-yl)-pyrimidin-4-yl]-3-(R)-methyl-piperazin-1-yl}-5-methyl-nicotinic acid]
≤ 1000	C[C@@H]1CN(c2ncc(C(=O)NCCO)cc2Cl)CCN1c1cc(-c2ccc(F)c(Cl)c2)nc(N2CCC[C@H]2C)n1 [Example 149, 5-Chloro-6-{4-[6-(3-chloro-4-fluoro-phenyl)-2-(2-(R)-methyl-pyrrolidin-1-yl)-pyrimidin-4-yl]-3-(R)-methyl-piperazin-1-yl}-N-(2-hydroxy-ethyl)-nicotinamide]
≤ 1000	Cc1ccc(C(N)=O)nc1N1CCN(c2cc(-c3ccc(F)cc3)nc(N3CCC[C@H]3C)n2)[C@H](C)C1 [Example 145, 6-{4-[6-(4-Fluoro-phenyl)-2-(2-(R)-methyl-pyrrolidin-1-yl)-pyrimidin-4-yl]-3-(R)-methyl-piperazin-1-yl}-5-methyl-pyridine-2-carboxylic acid amide]
